Experimental data: patent US6043223A, “Enhanced opening of abnormal brain tissue capillaries” (priority 1997, dated 2000)
Where a SMILES comes first, the peptide text is derived from it.

How the values were obtained:
[1] = rat, in vivo
Excerpt: (§1) Seven or eight days after tumor implantation, the rats were anesthetized with intra-peritoneal urethane (1 g/kg) and a polyethylene catheter was inserted retrograde through the external carotid artery to the common carotid artery bifurcation ipsilateral to the tumor. The external carotid artery and pterygopalatine artery were then ligated. Both femoral veins were cannulated for administration of drugs or tracers. One femoral artery was cannulated to monitor systemic blood pressure and the other femoral artery was cannulated to withdraw arterial blood. Body temperature was maintained at 37° C. and arterial blood gases, blood pressure, and hematocrit were monitored.

RG2 gliomas = assay: Regional permeability (Ki) by quantitative autoradiography in rats with implanted RG2 gliomas; assay type: in vivo, rat; conditions: for effect on tumor permeability 20 minutes after stopping the intracarotid infusion (in words): [14C]-dextran
Experimental: (§2) RG2 and C6 are cell lines derived from rat gliomas induced by ethylnitrosourea (17,18). The glioma cells were kept frozen until use, then thawed and maintained in a monolayer culture in F12 medium with 10% calf serum. The rats were anesthetized with intra-peritoneal ketamine (50 mg/kg). Glial tumors were implanted into the right hemisphere by intracerebral injections of 1×10^5 glioma cells in 5 μl F12 medium (1.2% methylcellulose) by a Hamilton syringe. The coordinates used were 5 mm lateral to the bregma, and 4.5 mm deep to the dural surface.
as §1
The tumor-implanted rats were grouped by tracers and by tumor types. Bradykinin (Sigma Chemical Co., St. Louis, Mo.) or PBS (control) was infused into the right carotid artery at a rate of 53.3 μl/minute (10 μg/kg/minute) for 15 minutes. In regional permeability studies, 5 minutes after the start of the intracarotid infusion, […] of [^14 C]-AIB (MW 103, Dupon-New England Nuclear Co., Boston, Mass.) or [^14 C]-Dextran (MW 70,000, Dupon-New England Nuclear Co.) was injected as an intravenous bolus. A peristaltic withdrawal pump was used to withdraw femoral arterial blood at a constant rate of […] immediately after the injection of the tracer for the determination of serum radioactivity. Fifteen minutes after the start of intracarotid infusions, the animals were killed by decapitation and the brains were rapidly removed and frozen.
Bradykinin, zaprinast or bradykinin mixed with zaprinast was infused into the right carotid artery at a rate of 53.3 μl/minute for 15 minute. The rate of infusion of bradykinin and zaprinast was 10 μg/kg/minute and 1.67 mg/kg/minute ([…]) respectively. Injection of tracer, withdrawing of arterial blood, and other protocols were in the same manner as described above.
The duration of the effect of the intracarotid bradykinin with or without zaprinast infusion in RG2 glioma was examined at three different periods by changing the time of [^14 C]-dextran injection relative to intracarotid infusion of bradykinin with or without zaprinast.
The frozen brains were mounted onto pedestals with M-1 embedding matrix (Lipshaw, Pittsburgh, Pa.) and 20 μm coronal sections were cut with a cryotome. The sections were thawmounted onto cover slips and autoradiograms were generated by co-exposing the sections on Kodak XAR-5 film with tissue calibrated [^14 C]-standards (Amersham, Arlington Heights, Ill.) for 2 weeks. The sequential section was stained with hematoxylin for the correlation of areas of histologically verified tumor areas with autoradiograms. The regional radioactivity was measured in the tumor, BST (areas within 2 mm distance from the border of the tumor), right cortex (ipsilateral cortex), left cortex (contralateral cortex), right white matter, left white matter, right basal ganglia, and left basal ganglia. Quantitative analysis of the regional radioactivity was performed using a computer (Power Macintosh 7100) and the software, Image 1.55 (NIH).
For quantitative autoradiographic examination, the regional permeability in the brain and tumor tissues were expressed by the unidirectional transfer constant, Ki value (μl/g/minute) which was determined as described in References 21, 22, 23 and 24). […]

[2] = Solubility of zaprinast in saline; assay type: physicochemical
Experimental: The bradykinin/bradykinin analog and zaprinast are preferably infused in the form of a pharmaceutical solution having a […] phosphate buffered saline solution as the carrier. The concentration of bradykinin in the solution is 10-40 μg/ml with the preferred concentration of zaprinast being on the order of 1 to 10 mg/ml for carotid artery administration. For intravenous administration, the concentration of bradykinin/bradykinin analog is preferably between about 15 μg/ml to 50 mg/ml with the preferred concentration of zaprinast being on the order of 2 mg/ml to 15 mg/ml. Zaprinast is not soluble directly in saline. Accordingly, it is preferred that the pharmaceutical solution be prepared by dissolving zaprinast in 1 M sodium hydroxide to form a concentrated solution of approximately 100 to 500 mg/ml zaprinast. This concentrated solution is then dissolved into phosphate buffered saline (PBS) to the final desired concentration. Bradykinin or the bradykinin analog is then added to the solution to form the final pharmaceutical preparation. The relative concentrations within the pharmaceutical preparation are adjusted as set forth above to provide a solution which is suitable for either carotid artery infusion or intravenous administration.

C6 gliomas = assay: Regional permeability (Ki) by quantitative autoradiography in rats with implanted C6 gliomas; assay type: in vivo, rat
Experimental: as §2, §1
The tumor-implanted rats were grouped by tracers and by tumor types. Bradykinin (Sigma Chemical Co., St. Louis, Mo.) or PBS (control) was infused into the right carotid artery at a rate of 53.3 μl/minute (10 μg/kg/minute) for 15 minutes. […] A peristaltic withdrawal pump was used to withdraw femoral arterial blood at a constant rate of […] immediately after the injection of the tracer for the determination of serum radioactivity. […]
The frozen brains were mounted onto pedestals with M-1 embedding matrix (Lipshaw, Pittsburgh, Pa.) and 20 μm coronal sections were cut with a cryotome. […] The regional radioactivity was measured in the tumor, BST (areas within 2 mm distance from the border of the tumor), right cortex (ipsilateral cortex), left cortex (contralateral cortex), right white matter, left white matter, right basal ganglia, and left basal ganglia. Quantitative analysis of the regional radioactivity was performed using a computer (Power Macintosh 7100) and the software, Image 1.55 (NIH).
For quantitative autoradiographic examination, the regional permeability in the brain and tumor tissues were expressed by the unidirectional transfer constant, Ki value (μl/g/minute) which was determined as described in References 21, 22, 23 and 24).
For all tracers, statistical comparison of regional Ki values or blood volume between same regions with/without bradykinin or zaprinast were determined using analysis of variance (ANOVA) followed by non-parametric analysis of Mann-Whitney's U test. […]

brain tumor capillaries = conditions: intracarotid infusion; previous studies (6-9); cited from earlier work

Structure (SMILES): CCCOc1ccccc1-c1nc2nn[nH]c2c(=O)[nH]1 [zaprinast, 2-(2-propyloxyphenyl)-8-azapurin-6-one]
- blood gas parameters or hemoglobin concentration (in words) [1]: did not change
- bradykinin effect on tumor permeability (Ki) at 10 minutes after infusion (in words) (RG2 gliomas; RG2 tumor, FIG. 5 time course): significantly prolonged
- effect on tumor permeability 20 minutes after stopping the intracarotid infusion (in words) (RG2 gliomas; RG2 tumor, time course study): negligible
- Ki values in RG2 tumors for both tracers (in words) (RG2 gliomas; zaprinast alone, intracarotid, [14C]-dextran and [14C]-AIB): did not increase
- solubility in saline (in words) [2]: not soluble
- Ki in tumors for [14C]-AIB (C6 gliomas; C6 tumor, intracarotid infusion 15 minutes (bradykinin 10 μg/kg/minute, zaprinast 1.67 mg/kg/minute)): 31.4 µL/g/min
- Ki values in C6 tumors for [14C]-dextran, increase with zaprinast alone (in words) (C6 gliomas; C6 tumor, zaprinast alone, intracarotid): not

Structure (SMILES): CCCCC/C=C\C\C=C/C=C/C=C/[C@@H](SC[C@H](NC(=O)CC[C@H](N)C(=O)O)C(=O)NCC(=O)O)[C@@H](O)CCCC(=O)O [LTC4, leukotriene C4]
- permeability in brain tumor capillaries vs normal brain capillaries (in words) (brain tumor capillaries): selectively increases

Structure (SMILES): NC(N)=NCCC[C@H](NC(=O)[C@H](Cc1ccccc1)NC(=O)[C@@H]1CCCN1C(=O)[C@H](CO)NC(=O)[C@H](Cc1ccccc1)NC(=O)CNC(=O)[C@@H]1CCCN1C(=O)[C@@H]1CCCN1C(=O)[C@@H](N)CCCN=C(N)N)C(=O)O [bradykinin] (H-RPPGFSPFR-OH)
- transport (Ki) of either tracer in other normal brain / non-tumor regions (in words) (RG2 gliomas; RG2-bearing rats, [14C]-dextran and [14C]-AIB): did not increase
- Ki for AIB in BST (brain within 2 mm of the tumor) (RG2 gliomas; RG2, brain surrounding tumor, intracarotid infusion 15 minutes): 5.31 ± 1.50 µL/g/min
- Ki for dextran in BST (in words) (RG2 gliomas; RG2, brain surrounding tumor, vs control): not significantly increased
- effect on tumor permeability 20 minutes after stopping the intracarotid infusion (in words) (RG2 gliomas; RG2 tumor, time course study): diminished
- Ki in tumors for [14C]-dextran, fold higher than in controls (RG2 gliomas; RG2 tumor, bradykinin 10 μg/kg/minute intracarotid vs PBS control): 8.4 fold
- Ki in tumors for [14C]-AIB (MW 103) (RG2 gliomas; RG2 tumor, intracarotid infusion 15 minutes (bradykinin 10 μg/kg/minute, zaprinast 1.67 mg/kg/minute), mean±SD): 26.46 ± 2.64 µL/g/min
- transfer constant, Ki, in tumors for [14C]-dextran (MW 70,000) (RG2 gliomas; RG2 tumor, intracarotid infusion 15 minutes (bradykinin 10 μg/kg/minute, zaprinast 1.67 mg/kg/minute), tracer i.v. 5 minutes after start, mean±SD): 14.33 ± 2.96 µL/g/min
- [14C]-dextran uptake into the tumor (Ki) 10 minutes after stopping the intracarotid infusion (RG2 gliomas; RG2 tumor, time course study): 3.89 ± 0.74 µL/g/min
- transport (Ki) for either tracer in non-tumor regions (in words) (C6 gliomas; C6-bearing rats, [14C]-dextran and [14C]-AIB): did not increase
- Ki in tumors for [14C]-dextran, fold higher than in controls (C6 gliomas; C6 tumor, bradykinin intracarotid vs PBS control): 3.1 fold
